Assay results reported in US10202361B2, “Pyridazinones as herbicides” (E I DU PONT DE NEMOURS AND COMPANY, priority 2014, dated 2019).
Like-named read-outs stand apart in the source and are kept apart here.

Tests used:
Experiment in all cases: Test A pre-/postemergence greenhouse herbicide test
Format in all cases: in vivo
[1] = test system: barnyardgrass (Echinochloa crus-galli); details: Echinochloa crus-galli, 240 h, 0 to 100 scale (0 no effect, 100 complete control), approx. 10 d, read-out: Plant response rating, Barnyardgrass; for pest or weed control at 125 g/ha: 125 g ai/ha; for pest or weed control at 500 g/ha: 500 g ai/ha
Outline: (§1)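 Seeds sown in loam–sand blend received a directed preemergence soil spray; postemergence spray was applied at the same time to plants 2–10 cm tall at one- to two-leaf stage. Compounds were in non-phytotoxic solvent with surfactant. Visual injury versus untreated controls after ~10 d in greenhouse, 0–100 scale (100 = complete control).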

corn (Zea mays) = details: Zea mays, 240 h, 0 to 100 scale (0 no effect, 100 complete control), approx. 10 d; for Corn plant response rating (crop injury, 0 = no effect, 100 = complete kill) at 125 g/ha: 125 g ai/ha; for Corn plant response rating (crop injury, 0 = no effect, 100 = complete kill) at 500 g/ha: 500 g ai/ha
Outline: as §1

[2] = test system: crabgrass, Large (large crabgrass, Digitaria sanguinalis); details: Digitaria sanguinalis, 240 h, 0 to 100 scale (0 no effect, 100 complete control), approx. 10 d, read-out: Plant response rating, Crabgrass, Large; for pest or weed control at 125 g/ha: 125 g ai/ha; for pest or weed control at 500 g/ha: 500 g ai/ha
Outline: as §1

[3] = test system: foxtail, giant (giant foxtail, Setaria faberii); details: Setaria faberi, 240 h, 0 to 100 scale (0 no effect, 100 complete control), approx. 10 d, read-out: Plant response rating, Foxtail, Giant; for pest or weed control at 125 g/ha: 125 g ai/ha; for pest or weed control at 500 g/ha: 500 g ai/ha
Outline: as §1

[4] = test system: morningglory (Ipomoea spp.); details: Ipomoea, 240 h, 0 to 100 scale (0 no effect, 100 complete control), approx. 10 d, read-out: Plant response rating, Morningglory; for pest or weed control at 125 g/ha: 125 g ai/ha; for pest or weed control at 500 g/ha: 500 g ai/ha
Outline: as §1

[5] = test system: pigweed (Amaranthus retroflexus); details: Amaranthus retroflexus, 240 h, 0 to 100 scale (0 no effect, 100 complete control), approx. 10 d, read-out: Plant response rating, Pigweed; for pest or weed control at 125 g/ha: 125 g ai/ha; for pest or weed control at 500 g/ha: 500 g ai/ha
Outline: as §1

[6] = test system: velvetleaf (Abutilon theophrasti); details: Abutilon theophrasti, 240 h, 0 to 100 scale (0 no effect, 100 complete control), approx. 10 d, read-out: Plant response rating, Velvetleaf; for pest or weed control at 125 g/ha: 125 g ai/ha; for pest or weed control at 500 g/ha: 500 g ai/ha
Outline: as §1

[7] = test system: wheat (Triticum aestivum); details: Triticum aestivum, 240 h, 0 to 100 scale (0 no effect, 100 complete control), approx. 10 d, read-out: Plant response rating, Wheat; for plant injury at 125 g/ha: 125 g ai/ha; for plant injury at 500 g/ha: 500 g ai/ha
Outline: as §1

Row | Compound | pest or weed control at 125 g/ha ([1]; post-emergence, Postemergence) | pest or weed control at 500 g/ha ([1]; post-emergence, Postemergence) | pest or weed control at 125 g/ha ([1]; pre-emergence, Preemergence) | pest or weed control at 500 g/ha ([1]; pre-emergence, Preemergence) | Corn plant response rating (crop injury, 0 = no effect, 100 = complete kill) at 125 g/ha (corn (Zea mays); post-emergence, Postemergence) | Corn plant response rating (crop injury, 0 = no effect, 100 = complete kill) at 500 g/ha (corn (Zea mays); post-emergence, Postemergence) | Corn plant response rating (crop injury, 0 = no effect, 100 = complete kill) at 125 g/ha (corn (Zea mays); pre-emergence, Preemergence) | Corn plant response rating (crop injury, 0 = no effect, 100 = complete kill) at 500 g/ha (corn (Zea mays); pre-emergence, Preemergence) | pest or weed control at 125 g/ha ([2]; post-emergence, Postemergence) | pest or weed control at 500 g/ha ([2]; post-emergence, Postemergence) | pest or weed control at 125 g/ha ([2]; pre-emergence, Preemergence) | pest or weed control at 500 g/ha ([2]; pre-emergence, Preemergence) | pest or weed control at 125 g/ha ([3]; post-emergence, Postemergence) | pest or weed control at 500 g/ha ([3]; post-emergence, Postemergence) | pest or weed control at 125 g/ha ([3]; pre-emergence, Preemergence) | pest or weed control at 500 g/ha ([3]; pre-emergence, Preemergence) | pest or weed control at 125 g/ha ([4]; post-emergence, Postemergence) | pest or weed control at 500 g/ha ([4]; post-emergence, Postemergence) | pest or weed control at 125 g/ha ([4]; pre-emergence, Preemergence) | pest or weed control at 500 g/ha ([4]; pre-emergence, Preemergence) | other results
1 | Cc1cc(=O)n(-c2ccc(F)cc2)nc1Cn1ccc(C(F)(F)F)n1 [Compound 3, 2-(4-fluorophenyl)-5-methyl-6-[[3-(trifluoromethyl)-1H-pyrazol-1-yl]methyl]-3(2H)-pyridazinone] | 0% | 10% | 0% | 20% | 0% | 20% | 0% | 0% | 10% | 30% | 30% | 90% | 10% | 30% | 0% | 40% | 60% | 70% | 0% | 0% | pest or weed control at 125 g/ha ([5]; post-emergence, Postemergence): 60%; pest or weed control at 500 g/ha ([5]; post-emergence, Postemergence): 70%; pest or weed control at 125 g/ha ([5]; pre-emergence, Preemergence): 20%; pest or weed control at 500 g/ha ([5]; pre-emergence, Preemergence): 80%; pest or weed control at 125 g/ha ([6]; post-emergence, Postemergence): 30%; pest or weed control at 500 g/ha ([6]; post-emergence, Postemergence): 80%; pest or weed control at 125 g/ha ([6]; pre-emergence, Preemergence): 0%; pest or weed control at 500 g/ha ([6]; pre-emergence, Preemergence): 20%; plant injury at 125 g/ha ([7]; post-emergence, Postemergence): 0%; plant injury at 500 g/ha ([7]; post-emergence, Postemergence): 0%; plant injury at 125 g/ha ([7]; pre-emergence, Preemergence): 0%; plant injury at 500 g/ha ([7]; pre-emergence, Preemergence): 0%
2 | Cc1cc(=O)n(-c2ccc(C(F)(F)F)cc2)nc1Oc1ccnc(C(F)(F)F)c1 [Compound 5, 5-methyl-2-[4-(trifluoromethyl)phenyl]-6-[[2-(trifluoromethyl)-4-pyridinyl]oxy]-3(2H)-pyridazinone] | 20% | 70% | 40% | 90% | 20% | 30% | 0% | 10% | 50% | 80% | 100% | 100% | 60% | 90% | 90% | 100% | 60% | 100% | 60% | 80% | pest or weed control at 125 g/ha ([5]; post-emergence, Postemergence): 100%; pest or weed control at 500 g/ha ([5]; post-emergence, Postemergence): 100%; pest or weed control at 125 g/ha ([5]; pre-emergence, Preemergence): 100%; pest or weed control at 500 g/ha ([5]; pre-emergence, Preemergence): 100%; pest or weed control at 125 g/ha ([6]; post-emergence, Postemergence): 70%; pest or weed control at 500 g/ha ([6]; post-emergence, Postemergence): 100%; pest or weed control at 125 g/ha ([6]; pre-emergence, Preemergence): 20%; pest or weed control at 500 g/ha ([6]; pre-emergence, Preemergence): 100%; plant injury at 125 g/ha ([7]; post-emergence, Postemergence): 30%; plant injury at 500 g/ha ([7]; post-emergence, Postemergence): 40%; plant injury at 125 g/ha ([7]; pre-emergence, Preemergence): 0%; plant injury at 500 g/ha ([7]; pre-emergence, Preemergence): 10%
3 | CCOc1cc(=O)n(-c2ccc(F)cc2)nc1C(=O)c1ccnc(C(F)(F)F)c1 [Compound 22, 5-ethoxy-2-(4-fluorophenyl)-6-[[2-(trifluoromethyl)-4-pyridinyl]carbonyl]-3(2H)-pyridazinone] | 20% | 100% | 20% | 80% | 50% | 90% | 0% | 20% | 60% | 100% | 100% | 100% | 60% | 100% | 90% | 100% | 40% | 100% | 30% | 100% | pest or weed control at 125 g/ha ([5]; post-emergence, Postemergence): 100%; pest or weed control at 500 g/ha ([5]; post-emergence, Postemergence): 100%; pest or weed control at 125 g/ha ([5]; pre-emergence, Preemergence): 100%; pest or weed control at 500 g/ha ([5]; pre-emergence, Preemergence): 100%; pest or weed control at 125 g/ha ([6]; post-emergence, Postemergence): 20%; pest or weed control at 500 g/ha ([6]; post-emergence, Postemergence): 50%; pest or weed control at 125 g/ha ([6]; pre-emergence, Preemergence): 40%; pest or weed control at 500 g/ha ([6]; pre-emergence, Preemergence): 100%; plant injury at 125 g/ha ([7]; post-emergence, Postemergence): 60%; plant injury at 500 g/ha ([7]; post-emergence, Postemergence): 90%; plant injury at 125 g/ha ([7]; pre-emergence, Preemergence): 10%; plant injury at 500 g/ha ([7]; pre-emergence, Preemergence): 40%
